pIC50: −log10 of the molar value. Several values for one entry are separate records, joined by “and”; a condition that tells them apart may be missing. Identical values can stand only once.
Key:
TDO2 enzyme = molecular target: T1, TDO2 enzyme (Homo sapiens, UniProt P48775); experiment: TDO2 enzyme inhibition assay (hTDO2 assay kit, NFK-green); details: TDO2 enzyme 50 nM, tryptophan 200 μM, top concentration 30 μM; read-out: TDO2 Biochemical assay IC50
T1 construct: purchased Netherlands Translational Research Center B.V. NTRC-hTDO-1K
T1 sequence (P48775 whole entry): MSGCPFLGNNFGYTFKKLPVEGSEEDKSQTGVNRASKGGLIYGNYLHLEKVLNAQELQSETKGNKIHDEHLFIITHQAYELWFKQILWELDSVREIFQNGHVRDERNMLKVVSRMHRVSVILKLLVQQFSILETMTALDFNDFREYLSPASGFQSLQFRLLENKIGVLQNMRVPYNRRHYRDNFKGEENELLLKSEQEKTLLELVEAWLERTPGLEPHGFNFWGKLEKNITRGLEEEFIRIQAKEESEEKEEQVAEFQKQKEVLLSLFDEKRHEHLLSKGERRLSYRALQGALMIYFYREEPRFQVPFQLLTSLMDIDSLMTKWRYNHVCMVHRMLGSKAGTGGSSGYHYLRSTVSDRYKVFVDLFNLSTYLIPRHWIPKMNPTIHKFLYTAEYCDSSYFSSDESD
Description: The effect of compounds on TDO2 enzymatic activity was assess by use of an hTDO2 assay kit (Netherlands Translational Research Center B.V., Cat #NTRC-hTDO-1K). TDO2 enzyme and tryptophan substrate are diluted in assay buffer. Compounds are tested at 8 consecutive 3-fold dilutions starting from 30 μM. 267 nL of compound is added per well of a 384-well plate followed by addition of 10 μL of assay buffer. TDO2 enzyme is added at a final concentration of 50 nM and pre-incubated for 60 min at room temperature in the dark. Tryptophan substrate solution is then added at final concentration of 200 μM to all wells and the plate incubated for 15 min at RT in the dark. Finally NFK-green reagent is added at ⅕ of total reaction volume and incubated for 4 h at RT in the dark. After incubation fluorescence is measured at Ex405 nm-Em535 nm using EnVision plate reader.
(§1) IC50 values are determined using GraphPad Prism software 5.04 for Windows by plotting percent of inhibition against log 10 concentrations of compounds using a four-parametric sigmoidal curve with a variable slope.

IDO1 enzyme = molecular target: T2, IDO1 enzyme (Homo sapiens, UniProt P14902); experiment: IDO1 enzyme inhibition assay (hIDO assay kit, NFK-green); details: IDO1 enzyme 25 nM, tryptophan 100 μM, top concentration 30 μM; read-out: IDO1 Biochemical assay IC50
T2 construct: purchased Netherlands Translational Research Center B.V. NTRC-hIDO-1K
T2 sequence (P14902 whole entry): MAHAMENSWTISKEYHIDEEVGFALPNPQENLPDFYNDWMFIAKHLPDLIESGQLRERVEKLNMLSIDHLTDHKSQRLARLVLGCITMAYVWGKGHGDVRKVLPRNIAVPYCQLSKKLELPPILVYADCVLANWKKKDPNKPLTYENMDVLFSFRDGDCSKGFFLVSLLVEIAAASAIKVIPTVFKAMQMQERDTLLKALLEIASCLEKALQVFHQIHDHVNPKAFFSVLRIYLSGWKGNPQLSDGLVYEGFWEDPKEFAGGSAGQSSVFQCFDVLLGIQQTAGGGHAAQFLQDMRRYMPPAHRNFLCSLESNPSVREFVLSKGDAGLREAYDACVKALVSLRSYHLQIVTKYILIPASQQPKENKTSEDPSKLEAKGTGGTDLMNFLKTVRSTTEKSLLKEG
Description: The effect of compounds on IDO1 enzymatic activity was assessed by use of a hIDO assay kit (Netherlands Translational Research Center B.V., Cat #NTRC-hIDO-1K). IDO1 enzyme and tryptophan substrate are diluted in assay buffer. Compounds are tested at 8 consecutive 3-fold dilutions starting from 30 μM. 267 nL of compound is added per well of a 384-well plate followed by addition of 10 μL of assay buffer. IDO1 enzyme is added at a final concentration of 25 nM and pre-incubated for 30 min at room temperature in the dark. Tryptophan substrate solution is then added at final concentration of 100 μM to all wells and the plate incubated for 60 min at RT in the dark. Finally NFK-green reagent is added at ⅕ of total reaction volume and incubated for 4 h at RT in the dark. After incubation fluorescence is measured at Ex405 nm-Em535 nm using EnVision plate reader.
as §1

SK-OV-3 cells = experiment: Effect of compounds on tryptophan catabolism in SK-OV-3 cell line (inhibition of kynurenine production, LC-MS/MS); type: cell-based; details: Homo sapiens, SK-OV-3, 24 h, SK-OV-3 cell line, 24 h incubation, kynurenine in supernatant by LC-MS/MS; read-out: IC50 Ranges (ic50 values for inhibition of Kynurenine production)
How it was run: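 Kynurenine in supernatants quantified by LC-MS/MS after 24 h compound exposure (37 °C; top 30 μM, eight 3-fold steps, duplicate) in DMEM F-12 containing 6 mg/mL L-tryptophan. Cells pre-plated overnight in McCoy's 5A with 10% FBS. Viability checked in parallel by ATP luminescence.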

[1] = test system: monocyte-derived dendritic cells; experiment: Effect of compounds on tryptophan catabolism in monocyte-derived dendritic cells (kynurenine production); type: cell-based; details: Homo sapiens, Dendritic cell; dendritic cells triggered with LPS and IFNγ, 24 h with compound
Description: (§2) Peripheral blood mononuclear cells are isolated from buffy coats from healthy volunteers by Lymphoprep density gradient centrifugation, followed by lysis of residual erythrocytes with isotonic buffer solution of ammonium chloride. CD14+ cells are isolated by positive selection using MACS® technology and CD14 MicroBeads (Miltenyi Biotec) according to manufacturer's instructions. The isolated monocytes are differentiated into dendritic cells by incubation for 5 days in RPMI-1640 medium supplemented with 10% fetal bovine serum (FBS), 50 ng/mL GM-CSF and 35 ng/mL IL-4. After 5 days the DCs are seeded in 96-well plates in DMEM supplemented with 10% charcoal stripped FBS, GM-CSF and IL-4. The following day cells are triggered with LPS and IFNγ. After 24 h of incubation medium is replaced with DMEM F-12 medium supplemented with 6 mg/mL L-tryptophan and 10% charcoal stripped FBS. Compounds are added to the cells and incubated for 24 h at 37° C., 5% CO2, 95% humidity. Compounds are tested at 7 consecutive 4-fold dilutions starting from 30 μM in duplicate.
(§3) At the end of incubation concentration of kynurenine in cell supernatants is determined by LC-MS/MS. In parallel, cell viability is assessed by measurement of ATP by use of CellTiter Glo assay (Promega) according to manufacturer's protocol.
Inhibition of Kyn production is calculated using the following formula:
(1−(Kyn conc. cmpd.−Kyn conc. medium)/(Kyn conc. medium with cells−Kyn conc. medium))·100
IC50 values are determined using GraphPad Prism software 5.04 for Windows, by plotting percent of inhibition against log 10 concentrations of compounds using a four-parametric sigmoidal curve with a variable slope.

[2] = test system: monocyte-derived dendritic cells; experiment: Cell viability / cytotoxicity in monocyte-derived dendritic cells (ATP, CellTiter Glo); type: cell-based, human; details: 24 h, unit assumed
Description: as §2, §3
Cell viability results are analysed in Microsoft Excel and expressed as fold change over untreated control.

SMILES | pIC50 (TDO2 enzyme) | pIC50 (IDO1 enzyme) | pIC50 (SK-OV-3 cells) | pIC50 [1] | Cell viability at 30 uM (% of untreated control) [2] [%]
CCc1ccc(NC(=O)N(Cc2cccs2)C2CCCC2)cc1 [Compound 3, 1-cyclopentyl-3-(4-ethylphenyl)-1-(2-thienylmethyl)urea] | < 4.52 | < 4.52 | 6.30 to 7.00 |  | 
Cc1ccc(CN(C(=O)Nc2ccc(C#N)cc2)C2CCCC2)o1 [Compound 80, 3-(4-cyanophenyl)-1-cyclopentyl-1-[(5-methyl-2-furyl)methyl]urea] | < 4.52 | < 4.52 | > 7.00 | 7.59 | 112
Cc1ccc(CN(C(=O)Nc2ccc(F)cc2)C2CCC2)o1 [Compound 82, 1-cyclobutyl-3-(4-fluorophenyl)-1-[(5-methyl-2-furyl)methyl]urea] |  |  | 6.30 to 7.00 | 6.52 | 85
Cc1ccc(CN(C(=O)Nc2ccc(Cl)cc2)C2CCC2)o1 [Compound 83, 3-(4-chlorophenyl)-1-cyclobutyl-1-[(5-methyl-2-furyl)methyl]urea] | < 4.52 | < 4.52 | > 7.00 | 6.89 | 89
Cc1ccc(CN(C(=O)Nc2ccc(C#N)cc2)C2CCC2)o1 [Compound 84, 3-(4-cyanophenyl)-1-cyclobutyl-1-[(5-methyl-2-furyl)methyl]urea] |  |  | > 7.00 | 6.74 | 108
O=C(Nc1ccc(Cl)cc1)N(Cc1cccc(C(F)(F)F)c1)C1CCC1 [Compound 90, 3-(4-chlorophenyl)-1-cyclobutyl-1-[[3-(trifluoromethyl)-phenyl]methyl]urea] | < 4.52 |  | > 7.00 | 7.18 | 67
Cc1ccc(CN(C(=O)Nc2ccc(C#CCO)cc2)C2CCCC2)o1 [Compound 111, 1-cyclopentyl-3-[4-(3-hydroxyprop-1-ynyl)phenyl]-1-[(5-methyl-2-furyl)methyl]urea] | 5.32 and 5.66 | < 4.52 | > 7.00 |  | 
O=C(Nc1ccc(F)c(F)c1)N(Cc1cccc(C(F)(F)F)c1)C1CCCC1 [Compound 140, 1-cyclopentyl-3-(3,4-difluorophenyl)-1-[[3(trifluoromethyl)phenyl]methyl]urea] |  |  | > 7.00 | 6.49 | 92
N#Cc1cc(CN(C(=O)Nc2ccc(Cl)cc2)C2CCCC2)ccc1F [Compound 146, 3-(4-chlorophenyl)-1-[(3-cyano-4-fluoro-phenyl)methyl]-1-cyclopentyl-urea] |  |  | > 7.00 | 6.92 | 103
O=C(Nc1ccc(Cl)cc1)N(Cc1ccnc(C(F)(F)F)c1)C1CCCC1 [Compound 148, 3-(4-chlorophenyl)-1-cyclopentyl-1-[[2-(trifluoromethyl)-4-pyridyl]methyl]urea] |  |  | > 7.00 | 6.82 | 103
CC#Cc1ccc(NC(=O)N(Cc2ccc(C)o2)C2CCCC2)cc1 [Compound 154] | < 4.52 | < 4.52 | > 7.00 |  | 
Cc1ccc(CN(C(=O)Nc2ccc(C3=CCN(C(=O)OC(C)(C)C)C3)cc2)C2CCCC2)o1 [Compound 158, tert-butyl 3-[4-[[cyclopentyl-[(5-methyl-2-furyl)methyl]carbamoyl]amino]phenyl]-2,5-dihydropyrrole-1-carboxylate] | 5.19 | < 4.52 | 6.00 to 6.30 |  | 
COCC#Cc1ccc(NC(=O)N(Cc2ccc(C)o2)C2CCCC2)cc1 [Compound 162, 1-cyclopentyl-3-[4-(3-methoxyprop-1-ynyl)phenyl]-1-[(5-methyl-2-furyl)methyl]urea] | < 4.52 | < 4.52 | > 7.00 |  | 
COCC#Cc1ccc(NC(=O)N(Cc2ccc(C)o2)c2cnoc2C)cc1 [Compound 279, 3-[4-(3-methoxyprop-1-ynyl)phenyl]-1-[(5-methyl-2-furyl)methyl]-1-(5-methylisoxazol-4-yl)urea] |  | < 4.52 | > 7.00 |  | 

More lines, main results first:

pIC50 (TDO2 enzyme) | pIC50 (IDO1 enzyme) | pIC50 (SK-OV-3 cells) | pIC50 [1] | SMILES | Cell viability at 30 uM (% of untreated control) [2] [%]
 |  | > 7.00 | 7.00 | Cc1ccc(CN(C(=O)NCCc2ccccc2)C2CCCC2)s1 [Compound 26, 1-cyclopentyl-1-[(5-methyl-2-thienyl)methyl]-3-(2-phenylethyl)urea] | 19
 |  | > 7.00 | 6.60 | O=C(Nc1ccc(Cl)cc1)N(Cc1cccs1)C1CCCC1 [Compound 56, 3-(4-chlorophenyl)-1-cyclopentyl-1-(2-thienylmethyl)urea] | 94
 |  | > 7.00 | 7.19 | N#Cc1ccc(NC(=O)N(Cc2cccc(C(F)(F)F)c2)C2CCCC2)cc1 [Compound 89, 3-(4-cyanophenyl)-1-cyclopentyl-1-[[3-(trifluoromethyl)phenyl]methyl]urea] | 81
 |  | > 7.00 | 7.44 | N#Cc1ccc(NC(=O)N(Cc2cccc(C(F)(F)F)c2)C2CCC2)cc1 [Compound 91, 3-(4-cyanophenyl)-1-cyclobutyl-1-[[3-(trifluoromethyl)phenyl]methyl]urea] | 71
5.22 | < 4.52 | 5.30 to 6.00 |  | Cc1ccc(CN(C(=O)Nc2ccc(C#CC(C)(C)O)cc2)C2CCCC2)o1 [Compound 109, 1-cyclopentyl-3-[4-(3-hydroxy-3-methyl-but-1-ynyl)phenyl]-1-[(5-methyl-2-furyl)methyl]urea] | 
 |  | > 7.00 | 6.57 | O=C(Nc1ccc(F)c(F)c1)N(Cc1ccc(F)c(C(F)(F)F)c1)C1CCCC1 [Compound 139, 1-cyclopentyl-3-(3,4-difluorophenyl)-1-[[4-fluoro-3-(trifluoromethyl)phenyl]methyl]urea] | 77
 |  | > 7.00 | 6.33 | O=C(Nc1ccc(F)c(F)c1)N(Cc1ccc(F)c(OC(F)(F)F)c1)C1CCCC1 [Compound 141, 1-cyclopentyl-3-(3,4-difluorophenyl)-1-[[4-fluoro-3 (trifluoromethoxy)phenyl]methyl]urea] | 90
< 4.52 |  | > 7.00 | 7.15 | N#Cc1cccc(CN(C(=O)Nc2ccc(Cl)cc2)C2CCCC2)c1 [Compound 147, 3-(4-chlorophenyl)-1-[(3-cyanophenyl)methyl]-1-cyclopentyl-urea] | 122
 | < 4.52 | > 7.00 |  | Cc1ccc(CN(C(=O)Nc2ccc(Cl)cc2)c2conc2C)o1 [Compound 277, 3-(4-chlorophenyl)-1-[(5-methyl-2-furyl)methyl]-1-(3-methylisoxazol-4-yl)urea] | 

From patent US20210238139A1, “MODULATORS OF TRYPTOPHAN CATABOLISM” (E-Therapeutics PLC, priority 2018, published 2021)
